Active and inactive are the calls of the source.
Legend:
[1] = tested on: H9c2; assay: cells; format: functional, cell-based; conditions: Rattus norvegicus, H9c2, Myocardium;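 also: confirmatory concentration-response retest of ultra-high-throughput screening hits for modulation of myocardial damage; cell death induced by hydrogen peroxide oxidative stress; compound pretreatment for 60 min then peroxide exposure for 2 h; potency is for protecting the cells against peroxide damage rather than for killing them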
[2] = alpha-synuclein stem-loop luciferase translation blockers – H4 neuroglioma cells, luminescence, confirmation (AID 1988); format: functional, cell-based
[3] = luciferase reporter signal suppression in cells – H4 neuroglioma cells, luminescence, dose response (AID 1990); format: functional, cell-based
[4] = THP-1 cell cytotoxicity, dose response, cytotoxicity control for non-replicating M. tuberculosis project (AID 489025); format: functional
[5] = cells; format: functional
[6] = Vero E6 cell cytotoxicity, dose response, cytotoxicity control for non-replicating M. tuberculosis project, secondary assay (AID 492998); format: functional, VeroE6; conditions: Vero C1008
[7] = Luminescence Cell-Based Dose Response HTS to Identify Inhibitors of 5'UTR Stem-Loop Driven Prion Protein mRNA Translation in H4 Neuroglioblastoma Cells. [Related pubchem assays: 1827 (Project Summary), 1813 (Primary HTS)]; format: functional
[8] = tested on: P388; assay: cells; format: functional; conditions: Mus musculus
[9] = tested on: SN12K1; assay: cells; format: functional; conditions: Homo sapiens
[10] = tested on: P388/ADR; assay: cells; format: functional; conditions: Mus musculus
[11] = tested on: Streptococcus; assay: GAS UMAA2166 growth inhibition – luminescence, BacTiterGlo, counter-screen for streptokinase expression inhibitor project, dose response (AID 1915); format: functional, organism-based;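 also: potency for reduction of bacterial viability or growth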
[12] = target: T1, Streptokinase A (Streptococcus pyogenes serotype M1, UniProt P10520); assay: viability-normalized secreted streptokinase activity reduction – plasminogen activation absorbance, OD405, dose response (AID 1914); format: functional, Streptococcus pyogenes M1 GAS;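 also: secreted streptokinase activity via plasminogen activation per viability signal from cell pellet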
T1 sequence (P10520 whole entry): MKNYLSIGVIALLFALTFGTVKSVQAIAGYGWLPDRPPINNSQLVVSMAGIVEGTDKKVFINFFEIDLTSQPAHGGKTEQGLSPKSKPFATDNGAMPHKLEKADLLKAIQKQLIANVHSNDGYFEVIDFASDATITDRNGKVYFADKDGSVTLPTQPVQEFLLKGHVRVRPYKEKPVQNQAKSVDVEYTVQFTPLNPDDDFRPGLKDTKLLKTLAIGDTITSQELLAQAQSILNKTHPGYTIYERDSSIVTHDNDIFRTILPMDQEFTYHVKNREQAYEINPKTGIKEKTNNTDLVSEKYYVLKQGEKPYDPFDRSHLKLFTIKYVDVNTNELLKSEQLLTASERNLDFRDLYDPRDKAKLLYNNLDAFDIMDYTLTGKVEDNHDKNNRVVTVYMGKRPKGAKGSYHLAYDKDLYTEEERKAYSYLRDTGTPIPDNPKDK

[13] = tested on: Streptococcus sp. 'group A'; assay: Streptococcus pyogenes SK(-)GAS viability under kanamycin – luminescence, BacTiterGlo, confirmation, counter-screen for streptokinase expression inhibitor project, dose response (AID 1900); format: functional, organism-based
[14] = target: T2, Corticotropin-releasing factor receptor 2/Corticotropin-releasing factor-binding protein (Homo sapiens, UniProt P24387+Q13324); assay: Dose Response confirmation of uHTS hits for small molecule antagonists of the CRF-binding protein and CRF-R2 receptor complex.; format: functional; conditions: read-out: IC50_Mean
T2 sequence (Q13324 whole entry): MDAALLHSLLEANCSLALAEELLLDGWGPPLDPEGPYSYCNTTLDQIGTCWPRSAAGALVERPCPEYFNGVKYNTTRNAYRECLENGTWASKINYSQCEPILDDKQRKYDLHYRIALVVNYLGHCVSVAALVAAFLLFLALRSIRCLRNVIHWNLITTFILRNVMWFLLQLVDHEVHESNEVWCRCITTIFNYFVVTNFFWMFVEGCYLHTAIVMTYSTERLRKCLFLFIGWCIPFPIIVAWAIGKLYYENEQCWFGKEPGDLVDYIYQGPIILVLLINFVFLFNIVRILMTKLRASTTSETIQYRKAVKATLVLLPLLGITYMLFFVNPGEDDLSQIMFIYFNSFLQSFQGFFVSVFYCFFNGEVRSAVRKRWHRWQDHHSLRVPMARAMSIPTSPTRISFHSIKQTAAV
T2 sequence (P24387 whole entry): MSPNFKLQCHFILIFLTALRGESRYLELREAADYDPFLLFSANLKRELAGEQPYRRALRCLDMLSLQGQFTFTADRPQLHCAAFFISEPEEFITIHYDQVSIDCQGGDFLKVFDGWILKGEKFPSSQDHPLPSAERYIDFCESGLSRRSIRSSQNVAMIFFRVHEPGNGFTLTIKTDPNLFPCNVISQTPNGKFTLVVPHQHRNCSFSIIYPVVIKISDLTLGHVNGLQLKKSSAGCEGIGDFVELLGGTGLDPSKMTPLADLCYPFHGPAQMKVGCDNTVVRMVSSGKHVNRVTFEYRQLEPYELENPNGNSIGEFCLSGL

[15] = target: T2, Corticotropin-releasing factor receptor 2/Corticotropin-releasing factor-binding protein; assay: activators of CRF receptor 2 with binding protein – uHTS hits, confirmation (AID 602473); format: functional; conditions: read-out: EC50_Mean
[16] = target: T3, Polyadenylate-binding protein 1 (Homo sapiens, UniProt P11940); assay: MLLE domain peptide-binding blockers, IC50 – biochemical, fluorescence polarization, FITC-PAM2 peptide, dose response (AID 602259); format: functional; conditions: read-out: IC50_Mean
T3 sequence (P11940 whole entry, the tested form may be a part): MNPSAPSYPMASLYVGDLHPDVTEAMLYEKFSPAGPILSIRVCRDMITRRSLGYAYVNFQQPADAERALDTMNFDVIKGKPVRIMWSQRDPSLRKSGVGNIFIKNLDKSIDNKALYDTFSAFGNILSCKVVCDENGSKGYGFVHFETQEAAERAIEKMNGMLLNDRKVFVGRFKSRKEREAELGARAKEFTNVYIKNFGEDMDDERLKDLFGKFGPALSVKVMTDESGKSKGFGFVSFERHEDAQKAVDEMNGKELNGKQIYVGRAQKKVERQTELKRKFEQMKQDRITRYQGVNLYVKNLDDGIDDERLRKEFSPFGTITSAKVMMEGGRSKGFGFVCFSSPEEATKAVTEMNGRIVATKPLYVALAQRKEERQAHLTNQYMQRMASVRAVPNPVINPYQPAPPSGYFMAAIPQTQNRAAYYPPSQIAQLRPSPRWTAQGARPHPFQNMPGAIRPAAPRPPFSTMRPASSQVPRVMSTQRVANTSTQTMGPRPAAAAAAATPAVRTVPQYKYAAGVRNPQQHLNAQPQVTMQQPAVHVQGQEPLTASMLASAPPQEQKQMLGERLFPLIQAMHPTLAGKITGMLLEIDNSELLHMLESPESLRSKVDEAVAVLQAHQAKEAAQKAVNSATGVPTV

[17] = target: T4, RNA-binding protein pos-1 (Caenorhabditis elegans, UniProt G5EF15); assay: disruptors of C. elegans POS-1 RNA interaction – biochemical, fluorescence polarization, dose response (AID 1964);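 also: purified POS-1 fused to maltose binding protein made in E. coli; potency of compounds blocking POS-1 binding to fluorescent RNA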
T4 sequence (G5EF15 whole entry): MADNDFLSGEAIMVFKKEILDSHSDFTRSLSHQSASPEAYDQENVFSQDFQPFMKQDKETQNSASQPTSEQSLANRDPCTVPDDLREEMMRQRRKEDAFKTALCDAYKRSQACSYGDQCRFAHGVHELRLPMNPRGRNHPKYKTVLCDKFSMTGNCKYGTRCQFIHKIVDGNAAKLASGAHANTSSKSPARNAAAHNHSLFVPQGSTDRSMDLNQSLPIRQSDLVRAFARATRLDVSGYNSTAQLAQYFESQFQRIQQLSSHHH

[18] = target: T5, Zinc finger protein mex-5 (Caenorhabditis elegans, UniProt Q9XUB2); assay: potency of MEX-5 RNA-binding blockers – biochemical, C. elegans, fluorescence polarization, dose response (AID 1960)
T5 sequence (Q9XUB2 whole entry): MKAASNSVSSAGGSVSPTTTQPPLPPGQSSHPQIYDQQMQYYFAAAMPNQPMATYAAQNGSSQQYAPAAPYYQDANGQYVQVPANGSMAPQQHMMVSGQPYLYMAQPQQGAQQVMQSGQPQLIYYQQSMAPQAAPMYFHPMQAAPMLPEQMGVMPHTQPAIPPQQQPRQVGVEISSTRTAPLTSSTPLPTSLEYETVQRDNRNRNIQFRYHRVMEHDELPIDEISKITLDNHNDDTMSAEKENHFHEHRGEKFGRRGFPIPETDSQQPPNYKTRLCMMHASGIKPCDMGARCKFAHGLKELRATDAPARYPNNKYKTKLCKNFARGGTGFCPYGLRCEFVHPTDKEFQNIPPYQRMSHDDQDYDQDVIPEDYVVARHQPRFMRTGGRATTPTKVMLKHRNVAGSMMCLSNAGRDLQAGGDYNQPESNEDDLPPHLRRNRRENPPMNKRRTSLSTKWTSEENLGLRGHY

[19] = target: T3, Polyadenylate-binding protein 1; assay: MLLE binding blockers, Cy5 peptide tracer – biochemical, fluorescence polarization, Cy5-PAM2 peptide, secondary, miRNA deadenylation inhibitor project, dose response (AID 602260); format: functional; conditions: read-out: IC50_Mean
[20] = target: T6, Microphthalmia-associated transcription factor (Homo sapiens, UniProt O75030); assay: reducers of TRPM1 reporter luminescence, concentration series – cell-based, SK-MEL-5, cherry-picked, set 3, MITF inhibitor project, dose response (AID 493073); format: functional;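 also: SK-MEL-5 melanoma cells with luciferase driven by the MITF target TRPM1 promoter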
T6 sequence (O75030 whole entry): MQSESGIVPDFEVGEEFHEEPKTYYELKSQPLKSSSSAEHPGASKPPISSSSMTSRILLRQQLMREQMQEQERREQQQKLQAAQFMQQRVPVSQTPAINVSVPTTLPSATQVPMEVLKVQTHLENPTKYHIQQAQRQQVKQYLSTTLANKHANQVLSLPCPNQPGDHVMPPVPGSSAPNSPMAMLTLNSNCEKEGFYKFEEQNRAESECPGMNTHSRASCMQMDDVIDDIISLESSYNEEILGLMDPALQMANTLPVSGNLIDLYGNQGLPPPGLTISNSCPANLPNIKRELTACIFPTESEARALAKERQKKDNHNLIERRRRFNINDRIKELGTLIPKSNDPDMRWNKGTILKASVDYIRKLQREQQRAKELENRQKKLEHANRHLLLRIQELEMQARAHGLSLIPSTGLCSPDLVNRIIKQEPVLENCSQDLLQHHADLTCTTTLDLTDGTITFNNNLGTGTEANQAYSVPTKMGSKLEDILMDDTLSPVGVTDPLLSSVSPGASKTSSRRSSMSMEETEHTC

[21] = target: Genome polyprotein (dengue virus type 2, UniProt P29990); assay: flavivirus cap methylation enzyme inhibition – biochemical, confirmation dose response, primary screen (AID 588689); format: functional
Chain of Genome polyprotein (P29990 2492-3391 limits assumed): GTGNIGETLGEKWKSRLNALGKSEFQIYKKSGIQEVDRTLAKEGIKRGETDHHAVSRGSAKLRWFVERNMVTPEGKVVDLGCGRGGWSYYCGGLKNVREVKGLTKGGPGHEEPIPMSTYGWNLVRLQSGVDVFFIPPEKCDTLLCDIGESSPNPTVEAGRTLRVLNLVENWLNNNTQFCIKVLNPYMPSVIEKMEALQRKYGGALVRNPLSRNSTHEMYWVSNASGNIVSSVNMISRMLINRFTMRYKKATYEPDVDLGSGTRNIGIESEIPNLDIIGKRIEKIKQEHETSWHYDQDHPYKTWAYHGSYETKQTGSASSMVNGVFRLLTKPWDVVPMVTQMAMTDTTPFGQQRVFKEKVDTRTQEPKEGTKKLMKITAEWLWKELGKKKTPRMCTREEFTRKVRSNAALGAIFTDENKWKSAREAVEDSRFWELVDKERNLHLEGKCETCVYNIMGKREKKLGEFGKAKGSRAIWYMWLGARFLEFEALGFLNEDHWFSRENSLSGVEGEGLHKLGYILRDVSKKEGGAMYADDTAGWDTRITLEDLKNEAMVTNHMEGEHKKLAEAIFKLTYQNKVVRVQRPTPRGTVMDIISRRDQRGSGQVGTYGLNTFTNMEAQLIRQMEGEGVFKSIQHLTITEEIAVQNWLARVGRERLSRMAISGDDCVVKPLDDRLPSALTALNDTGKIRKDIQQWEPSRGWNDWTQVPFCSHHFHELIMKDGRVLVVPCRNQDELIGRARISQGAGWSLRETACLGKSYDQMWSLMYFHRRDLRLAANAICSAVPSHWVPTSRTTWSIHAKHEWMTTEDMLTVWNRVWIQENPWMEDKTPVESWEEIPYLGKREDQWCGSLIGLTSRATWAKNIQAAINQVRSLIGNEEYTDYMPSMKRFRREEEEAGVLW

[22] = target: T7, Carboxy-terminal domain RNA polymerase II polypeptide A small phosphatase 1 (Homo sapiens, UniProt Q9GZU7); assay: CTDSP1 inhibitors, concentration-response, biochemical, absorbance readout, ultra-high-throughput screen actives (AID 540297); format: functional
T7 sequence (Q9GZU7 whole entry): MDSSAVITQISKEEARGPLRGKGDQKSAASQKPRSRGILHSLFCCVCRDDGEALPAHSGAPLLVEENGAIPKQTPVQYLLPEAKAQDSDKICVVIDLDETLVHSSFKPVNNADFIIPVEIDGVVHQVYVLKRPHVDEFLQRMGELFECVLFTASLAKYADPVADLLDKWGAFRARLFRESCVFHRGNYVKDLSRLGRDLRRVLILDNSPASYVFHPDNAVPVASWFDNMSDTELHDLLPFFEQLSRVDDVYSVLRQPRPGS

| SMILES | GI50 [8] | GI50 [9] | GI50 [10] | IC50 [14] | EC50 [15] | also measured |
| --- | --- | --- | --- | --- | --- | --- |
| COc1cc(OC)cc(C(=O)NNC(=O)c2ccccn2)c1 | – | – | – | – | – | IC50 [1]: > 79 µM (inactive); EC50 [2]: > 120 µM (not active); EC50 [3]: 11.6 µM (active); CC50 [4]: 10.6 µM (active); IC50 [5]: 9.73 µM (active); CC50 [6]: 12.6 µM (active); EC50 [7]: 11.2 µM (active) |
| CNC(=O)C(C)C1CCC2(C)C=CC(=O)C(C)=C2C1O (stereo not given) | > 100 µM (inactive) | > 100 µM (inactive) | > 100 µM (inactive) | – | – | – |
| O=C(NNC1=Nc2ccccc2SC1)c1ccc(F)cc1 | – | – | – | – | – | EC50 [11]: 15.6 µM (active); EC50 [12]: > 150 µM (not active); CC50 [4]: > 40 µM (active); IC50 [5]: 23.5 µM (active); CC50 [6]: > 20 µM (active); EC50 [13]: 3.72 µM (active) |
| C=CCN(CC(=O)NCc1ccccc1)C(=O)c1csnn1 | – | – | – | > 47.1 µM (inactive) | > 53 µM (inactive) | – |
| CNC(=O)OCc1nc(SC(C)C)n(C)c1COC(=O)NC | 46.9 µM (inactive) | > 100 µM (inactive) | 83.6 µM (inactive) | – | – | – |
| COc1cc2c(cc1NC(=O)COC(=O)CNC(=O)c1ccccc1)oc1ccccc12 | – | – | – | > 47.1 µM (inactive) | > 53 µM (inactive) | – |
| COc1cc(/C=C/C(=O)O)ccc1C(=O)OCc1ccccc1 | > 100 µM (inactive) | > 100 µM (inactive) | > 100 µM (inactive) | – | – | – |
| CN(C)CCNC(=O)c1cccc2cc3cc(O)ccc3nc12 | 0.0748 µM (active) | 0.339 µM (active) | 0.288 µM (active) | – | – | – |
| Nc1cc(O)c2cc(/N=N/c3ccc(/N=N/c4ccc(/N=N/c5ccc6cc(S(=O)(=O)O)cc(S(=O)(=O)O)c6c5)c5ccccc45)c4cc(S(=O)(=O)O)ccc34)c(S(=O)(=O)O)cc2c1 | > 100 µM (inactive) | > 100 µM (inactive) | – | – | – | – |
| Cc1cccc(-c2nnc3sc(-c4ccccc4C)nn23)c1 | – | – | – | – | – | CC50 [4]: 39 µM (active); IC50 [5]: 34.6 µM (active); CC50 [6]: > 20 µM (active) |
| O=C(NCc1cccc(Cl)c1)C1CCC(=O)N(CC2CCCCC2)C1 (stereo not given) | – | – | – | > 47.1 µM (inactive) | > 53 µM (inactive) | – |
| COc1cc(C2c3cc4c(cc3[C@@H](Oc3ccc(F)cc3)C3COC(=O)[C@H]23)OCO4)cc(OC)c1O (stereo not given in full) | 0.327 µM (active) | 0.31 µM (active) | 0.354 µM (active) | – | – | – |
| O=C(CC1=NCCN1)c1ccccc1 | > 750 µM (inactive) | > 750 µM (inactive) | 705 µM (inactive) | – | – | – |
| Cc1ccc(C)c(-c2nnc(NC(=O)c3ccc([N+](=O)[O-])o3)o2)c1 | – | – | – | – | – | CC50 [4]: 11.7 µM (active); IC50 [5]: < 0.1 µM (active); CC50 [6]: 11.6 µM (active) |
| CC(C)(C)OC(=O)NC(Cc1ccccc1)C(=O)N1CCC(C(=O)NCC(=O)Nc2ccc(F)cc2)CC1 (stereo not given) | – | – | – | > 47.1 µM (inactive) | > 53 µM (inactive) | IC50 [16]: 28.7 µM (inactive); EC50 [17]: 7.08 µM (active); EC50 [18]: 2.04 µM (inconclusive); IC50 [19]: > 66 µM (inactive) |
| COc1ccc(CCn2c(=S)[nH]c3cc(C(=O)NCc4ccco4)ccc3c2=O)cc1OC | – | – | – | – | – | AC50 [20]: 17.7 µM (active) |
| O=C1Nn2c(nc3c(c2=O)CCCC3)/C1=N/Nc1cccc(Cl)c1 | – | – | – | 19.2 µM (active) | > 53 µM (inactive) | IC50 [21]: 62.4 µM (active); IC50 [22]: 5.32 µM (active) |
| COc1ccccc1N1CCN(C(c2ccc(Cl)cc2)c2nnnn2C(C)(C)C)CC1 (stereo not given) | – | – | – | > 47.1 µM (inactive) | > 53 µM (inactive) | – |
| COc1ccc(CCn2c(=O)c3cccnc3n(Cc3cccc([N+](=O)[O-])c3)c2=O)cc1OC | – | – | – | > 47.1 µM (inactive) | > 53 µM (inactive) | – |

From ChEMBL document CHEMBL1201862, “PubChem BioAssay data set” (2004)
